We go through five compounds from patent US20220249680A1, “ANTIBODY-ALK5 INHIBITOR CONJUGATES AND THEIR USES” (Synthis Therapeutics, Inc., priority 2019, published 2022).

Experiment [1] deals with primary mouse CD4+ T cells. Nature of the experiment: MTS proliferation assay, TGF-β1 treated primary mouse CD4+ T cells. The format is cell-based. As for the experimental part:
Compounds A-D were tested to determine whether they could inhibit TGF-β signaling in primary mouse CD4^+ T cells.
Primary mouse CD4^+ T cells were isolated from the spleens of C57/B6 mice using the RoboSep™ cell isolation system (Stemcell Technologies). 0.5 μg/ml of hamster anti-mouse CD3e antibody (145-2C11; eBioscience) was coated onto a 96 well flat bottom plate overnight. 1×10^5 purified CD4^+ T cells were incubated with 1 μg/ml soluble hamster anti-mouse CD28 antibody (37.51, BD Biosciences), 1 nM TGF-β1 and 8-fold serial dilutions of Compounds A-D. After 72 hours, cell proliferation was measured using an MTS assay (Promega) in accordance with the manufacturer's instructions.

The target of experiment [2] is T1, ALK5 (Homo sapiens, UniProt P36897).
T1 sequence (P36897 34-503): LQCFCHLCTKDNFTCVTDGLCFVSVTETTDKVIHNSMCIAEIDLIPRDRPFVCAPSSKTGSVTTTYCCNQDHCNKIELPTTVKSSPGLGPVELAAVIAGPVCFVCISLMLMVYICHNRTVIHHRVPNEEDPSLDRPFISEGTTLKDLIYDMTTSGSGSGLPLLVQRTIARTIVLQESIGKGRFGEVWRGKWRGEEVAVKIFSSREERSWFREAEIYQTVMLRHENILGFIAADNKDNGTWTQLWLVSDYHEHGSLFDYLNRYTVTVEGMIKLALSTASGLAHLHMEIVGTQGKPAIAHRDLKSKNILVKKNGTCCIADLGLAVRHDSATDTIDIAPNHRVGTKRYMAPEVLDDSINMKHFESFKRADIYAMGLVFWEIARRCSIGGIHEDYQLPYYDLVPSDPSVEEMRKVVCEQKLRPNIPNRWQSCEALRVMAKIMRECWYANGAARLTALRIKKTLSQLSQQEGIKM
The experiment in a line: recombinant kinase assays (IC50 and Ki). The experiment is classed as biochemical. The conditions noted are these: Compound C versus Compound N. An excerpt: Compound N was compared to Compound C in a number of in vitro assays.

Experiment [3] has as its system CMV responsive human PBMCs. Nature of the experiment: Cytokine secretion assay (IFN-γ) with CMV antigens. The format is cell-based. The conditions noted are these: 1 nM TGF-β, 1 ng/ml each agent, 48 hours. The procedure:
In a 96-well round bottom plate, 1.5×10^5 CMV responsive human PBMCs (Astarte Biologics) were cultured with 1.5 μg/ml CMV antigens (Astarte Biologics) in serum free medium for 48 hours alone or in the presence of (i) 1 nM TGF-β, (ii) 1 nM TGF-β and T3A #5 at 1 ng/ml, (iii) 1 nM TGF-β and pembrolizumab at 1 ng/ml, (iv) 1 nM TGF-β, T3A #5 at 1 ng/ml, and pembrolizumab at 1 ng/ml, or (v) 1 nM TGF-β and isotype control antibody (negative control). IFN-γ levels were measured in the supernatants using a R&D ELISA kit.

For `CNCCOc1ccc(-c2cc(-c3c[nH]nc3-c3cccc(C)n3)ccn2)cc1` [Compound C, N-methyl-2-(4-{4-[3-(6-methylpyridin-2-yl)-1H-pyrazol-4-yl]pyridin-2-yl}phenoxy)ethan-1-amine], the “reversal of TGFβ-mediated inhibition of T cell proliferation” value in experiment [1] (in words) is reported as “reversed TGFβ-mediated inhibition of T cell proliferation”. Moreover, the “potency relative to Compound N in the recombinant assays” value in experiment [2] was determined as 10 fold.
As for `CCNC(=O)c1ccc2c(c1)NC(=O)/C2=C(\Nc1ccc(N(CCNC)S(C)(=O)=O)cc1)c1ccccc1` [Compound D, (Z)-N-ethyl-3-(((4-(N-(2-(methylamino)ethyl)methylsulfonamido)phenyl)amino)(phenyl)methylene)-2-oxoindoline-6-carboxamide], the “Experiment 1 IC50 (nM)” value in experiment [1] (1 nM TGF-β1, 72 hours) is given as “Value not obtained”. In addition, the “Experiment 2 IC50 (nM)” value in experiment [1] (Experiment 2, 1 nM TGF-β1, 72 hours) is reported as “Value not obtained”. The “IC50 value in mouse CD4+ T cells” value in experiment [1] (two different experiments, in words) is reported as “not obtained”.
Take `Cc1cccc(-c2nc(N)sc2-c2ccc3ncccc3n2)n1` [Compound A, 4-(6-methylpyridin-2-yl)-5-(1,5-naphthyridin-2-yl)-1,3-thiazol-2-amine]: the “Experiment 1 IC50 (nM)” value in experiment [1] (1 nM TGF-β1, 72 hours) is listed as “Value not obtained”. The “reversal of TGFβ-mediated inhibition of T cell proliferation” value in experiment [1] (in words) is given as “did not show consistent effects”.
In the case of “pembrolizumab: T cell checkpoint inhibitor (anti-PD1, Merck)”, the IFN-γ levels result in experiment [3] is given as “increase IFN-γ levels”.
As for `CNCCOc1ccc(-c2cc(-c3c[nH]nc3-c3ccccn3)ccn2)cc1` [Compound B, N-methyl-2-(4-{4-[3-(pyridin-2-yl)-1H-pyrazol-4-yl]pyridin-2-yl}phenoxy)ethan-1-amine], in experiment [1] (in words), the “reversal of TGFβ-mediated inhibition of T cell proliferation” value is “reversed TGFβ-mediated inhibition of T cell proliferation”.
